# “And” between values parts separate entries of the source, which are not always exact repeats. Equal values may be shown once.
# System: self-administration (addictive potential)
# Assay: I.v. self-administration of CP612, between-session progressive ratio and demand curve
# Procedure: We tested the addictive potential of CP612 by examining the extent to which rats are willing to work to obtain CP612. Rats were initially trained to self-administer either saline, morphine (500 μg/kg/i.v. infusion), or 1 of 3 different doses of CP612 (75, 150, or 300 μg/kg/i.v. infusion) for 4 days at fixed ratio 1 (FR1, where 1 nose poke delivers 1 infusion).
# During the second phase, the ratio to obtain an infusion increased geometrically every other day (FR1, FR3, FR6, FR12, FR24, FR48, and FR96).
# Data (number of self-infusions) were also fitted in an economic-demand curve, which provides an estimate of the motivation to obtain drugs and their addictive potential ([20]). We measured elasticity (α), which is the relative change in consumption as a function of price (i.e., ratio of nose pokes required to obtain an infusion). Behavior is considered “inelastic” when consumption is insensitive to price and “elastic” when consumption is sensitive to price. We also measured Pmax, which is the price at which intake switches from inelastic to elastic. […] (Figure 8B).
# Rats not immediately anesthetized were eliminated from the study.
# Following this initial acquisition phase at FR1, the ratio to obtain the drug was increased geometrically every other day: FR3 (3 nose pokes are required to obtain 1 infusion of morphine), FR6, FR12, FR24, FR48, and FR96. This allows for analysis of drug consumption as a function of “price” using demand curves for behavioral economics, which can estimate the motivation to obtain drugs and their “addictive potential” ([20]). For this, data from each rat were fitted to the equation log Q = log Q0 + k (e ^–α(Q0 ^C) – 1), where Q represents consumption (number of self-infusions), and Q0 represents the level of consumption at the lowest price. C represents price for the drug (i.e., the ratio), and k is set to a constant accounting for the estimated range of consumption in logarithmic units (k = 4 in these studies). The symbol α is the relative change in consumption across changes in price (ratio). Behavior is considered “inelastic” when consumption is insensitive to price (i.e., the curve is flat, and consumption is maintained despite increases in price), and it switches to “elastic” when consumption is sensitive to price (i.e., when the curve is steep and consumption declines with increases in price). […] We also compared groups for their average intake in the consumption-price curves by measuring α (elasticity) and Pmax.
structure (smiles),measurement,setting,value
N[C@H](CNC(=O)C1(c2ccc(Cl)cc2)CCCC1)c1ccc(C(=O)Nc2ccncc2)cc1 [CP612],AVG Latency (FR1_D1 to D4),"CP612-High, individual rat",0.277 and 0.6 and 2.3 and 1.8 and 0.8 and 0.9 and 1.0
same,AVG Latency (FR1_Last 2 FR1 days),"CP612-High, individual rat",0.051 and 0.179 and 0.9 and 1.8 and 0.219 and 0.171
same,AVG Latency (FR1_Last 4 FR1 days),"CP612-High, individual rat",0.076 and 0.283 and 1.5 and 1.8 and 0.8 and 0.9 and 0.53
same,AVG Latency (FR3),"CP612-High, individual rat",1.2 and 0.116 and 2.8 and 0.5 and 0.236 and 1.4 and 0.326
same,AVG Latency (FR6),"CP612-High, individual rat",0.64 and 0.4 and 0.643 and 1.9 and 0.8 and 2.5 and 0.6
same,AVG Latency (FR12),"CP612-High, individual rat",14.4 and 2.6 and 0.5 and 4.0 and 0.6 and 2.1
same,AVG Latency (FR24),"CP612-High, individual rat",1.9 and 0.9 and 0.3 and 0.6 and 2.3 and 1.3
same,AVG Latency (FR48),"CP612-High, individual rat",14.3 and 0.9 and 1.1 and 1.9 and 18.8 and 1.2
same,AVG Latency (FR96),"CP612-High, individual rat",13.6 and 1.5 and 0.9 and 12.9 and 2.4 and 0.8
same,D1 Latency (FR1),"CP612-High, individual rat",0.857 and 1.7 and 5.4 and 2.9 and 0.6 and 0.743
same,D1 Latency (FR3),"CP612-High, individual rat",2.0 and 0.108 and 0.043 and 0.6 and 0.3 and 0.19 and 0.232
same,D1 Latency (FR6),"CP612-High, individual rat",0.65 and 0.1 and 0.9 and 0.7 and 0.8 and 3.8 and 0.275
same,D1 Latency (FR12),"CP612-High, individual rat",27.0 and 1.2 and 0.527 and 5.7 and 0.283 and 3.2 and 2.2
same,D1 Latency (FR24),"CP612-High, individual rat",1.3 and 0.7 and 0.338 and 0.9 and 1.7 and 1.4
same,D1 Latency (FR48),"CP612-High, individual rat",16.8 and 0.4 and 0.255 and 0.142 and 1.1 and 36.4 and 0.743
same,D1 Latency (FR96),"CP612-High, individual rat",4.4 and 1.8 and 0.643 and 3.1 and 3.3 and 0.647 and 0.7
same,D2 Latency (FR1),"CP612-High, individual rat",0.077 and 0.4 and 2.0 and 0.6 and 2.2 and 0.9
same,D2 Latency (FR3),"CP612-High, individual rat",0.5 and 0.125 and 5.6 and 0.4 and 0.17 and 2.6
same,D2 Latency (FR6),"CP612-High, individual rat",0.6 and 0.7 and 0.4 and 3.1 and 0.8 and 1.2 and 0.9
same,D2 Latency (FR12),"CP612-High, individual rat",1.8 and 4.1 and 0.5 and 2.3 and 0.9 and 1.0 and 2.9
same,D2 Latency (FR24),"CP612-High, individual rat",2.5 and 1.2 and 0.257 and 0.283 and 0.355 and 2.9
same,D2 Latency (FR48),"CP612-High, individual rat",11.8 and 1.4 and 1.9 and 3.7 and 1.1 and 1.2 and 1.7
same,D2 Latency (FR96),"CP612-High, individual rat",22.7 and 1.2 and 1.1 and 1.6 and 0.9 and 2.4
same,D3 Latency (FR1),"CP612-High, individual rat",0.125 and 0.22 and 1.4 and 2.0 and 0.063 and 1.3 and 0.185
same,D4 Latency (FR1),"CP612-High, individual rat",0.05 and 0.138 and 0.457 and 1.7 and 0.375 and 0.547 and 0.158
same,last Latency (FR1),"CP612-High, individual rat",0.052 and 0.138 and 0.457 and 1.7 and 0.375 and 0.547 and 0.158
same,last-1 Latency (FR1),"CP612-High, individual rat",0.05 and 0.22 and 1.4 and 2.0 and 0.063 and 1.3 and 0.185
same,last-2 Latency (FR1),"CP612-High, individual rat",0.125 and 0.4 and 2.0 and 0.6 and 2.2 and 0.9
same,last-3 Latency (FR1),"CP612-High, individual rat",0.077 and 0.4 and 2.0 and 2.9 and 0.6 and 0.9
same,AVG Latency (FR1_D1 to D4),"CP612-Low, individual rats",4.9 and 0.7 and 2.4 and 1.7 and 1.1
same,AVG Latency (FR1_Last 2 FR1 days),"CP612-Low, individual rats",0.358 and 0.6 and 0.284 and 0.9 and 0.159 and 1.0 and 0.2 and 1.2
same,AVG Latency (FR1_Last 4 FR1 days),"CP612-Low, individual rats",1.9 and 0.8 and 0.222 and 0.443 and 1.2 and 0.5 and 0.6
same,AVG Latency (FR3),"CP612-Low, individual rats",0.8 and 1.6 and 4.5 and 0.452 and 0.377 and 4.0 and 0.095 and 0.182
same,AVG Latency (FR6),"CP612-Low, individual rats",1.5 and 1.4 and 2.2 and 0.323 and 0.9 and 0.163 and 0.233
same,AVG Latency (FR12),"CP612-Low, individual rats",1.6 and 0.566 and 0.8 and 0.4 and 2.4 and 1.9 and 1.0
same,AVG Latency (FR24),"CP612-Low, individual rats",3.5 and 0.6 and 1.0 and 0.8 and 0.426 and 5.1 and 1.2 and 0.7
same,AVG Latency (FR48),"CP612-Low, individual rats",0.7 and 2.3 and 2.2 and 0.372 and 0.844 and 2.6 and 0.335 and 1.6
same,AVG Latency (FR96),"CP612-Low, individual rats",1.1 and 0.176 and 4.5 and 0.551 and 1.2 and 0.0585 and 2.6 and 0.259
same,D1 Latency (FR1),"CP612-Low, individual rats",12.2 and 0.368 and 2.4 and 7.3 and 1.0 and 3.8 and 1.9 and 0.7
same,D1 Latency (FR3),"CP612-Low, individual rats",0.425 and 0.5 and 1.0 and 0.458 and 0.7 and 4.6 and 0.155 and 0.173
same,D1 Latency (FR6),"CP612-Low, individual rats",1.3 and 2.2 and 0.473 and 0.533 and 0.9 and 0.183 and 0.32
same,D1 Latency (FR12),"CP612-Low, individual rats",0.9 and 2.3 and 0.7 and 1.3 and 0.66 and 1.0 and 0.6
same,D1 Latency (FR24),"CP612-Low, individual rats",6.2 and 0.9 and 1.5 and 0.7 and 8.8 and 2.1 and 0.19
same,D1 Latency (FR48),"CP612-Low, individual rats",1.1 and 1.6 and 3.8 and 0.332 and 0.655 and 0.6 and 0.368 and 0.073
same,D1 Latency (FR96),"CP612-Low, individual rats",0.8 and 0.108 and 8.1 and 0.57 and 0.062 and 1.6 and 0.143
same,D2 Latency (FR1),"CP612-Low, individual rats",4.7 and 1.8 and 0.14 and 0.425 and 1.0 and 0.13 and 1.5 and 0.027
same,D2 Latency (FR3),"CP612-Low, individual rats",1.1 and 2.8 and 7.9 and 0.445 and 0.067 and 3.5 and 0.035 and 0.2
same,D2 Latency (FR6),"CP612-Low, individual rats",1.7 and 0.562 and 4.0 and 0.658 and 0.112 and 0.9 and 0.143 and 0.147
same,D2 Latency (FR12),"CP612-Low, individual rats",2.2 and 0.8 and 0.4 and 0.355 and 0.1 and 3.4 and 2.9 and 1.5
same,D2 Latency (FR24),"CP612-Low, individual rats",0.76 and 0.282 and 0.4 and 0.9 and 0.148 and 1.5 and 0.188 and 1.2
same,D2 Latency (FR48),"CP612-Low, individual rats",0.337 and 3.0 and 0.6 and 0.4 and 1.0 and 4.6 and 0.3 and 3.2
same,D2 Latency (FR96),"CP612-Low, individual rats",1.5 and 0.245 and 0.8 and 0.533 and 1.6 and 0.055 and 3.5 and 0.375
same,D3 Latency (FR1),"CP612-Low, individual rats",2.1 and 0.145 and 0.175 and 0.9 and 0.5 and 2.5 and 0.8 and 0.017
same,D4 Latency (FR1),"CP612-Low, individual rats",0.433 and 0.6 and 0.143 and 1.0 and 0.3 and 0.258 and 0.24 and 2.0
same,last Latency (FR1),"CP612-Low, individual rats",0.283 and 0.653 and 0.332 and 0.9 and 0.03 and 1.7 and 0.163 and 0.342
same,last-1 Latency (FR1),"CP612-Low, individual rats",0.433 and 0.6 and 0.237 and 1.0 and 0.3 and 0.258 and 0.24 and 2.0
same,last-2 Latency (FR1),"CP612-Low, individual rats",2.1 and 0.145 and 0.143 and 0.9 and 0.5 and 2.5 and 0.8 and 0.017
same,last-3 Latency (FR1),"CP612-Low, individual rats",4.7 and 1.8 and 0.175 and 0.425 and 1.0 and 0.13 and 0.8 and 0.017
same,AVG Latency (FR1_D1 to D4),"CP612-Mid, individual rat",1.3 and 0.461 and 0.5 and 1.6
same,AVG Latency (FR1_Last 2 FR1 days),"CP612-Mid, individual rat",0.475 and 0.9 and 0.261 and 0.6 and 3.4
same,AVG Latency (FR1_Last 4 FR1 days),"CP612-Mid, individual rat",0.356 and 0.538 and 0.317 and 0.363 and 1.9
same,AVG Latency (FR3),"CP612-Mid, individual rat",0.8 and 0.466 and 1.2 and 0.0825
same,AVG Latency (FR6),"CP612-Mid, individual rat",0.633 and 1.0 and 0.8 and 3.0 and 4.9

# — PMC12016938, “A small molecule PKCε inhibitor reduces hyperalgesia induced by paclitaxel or opioid withdrawal” (JCI Insight, 2025)
